Test systems include COLO 205; RPMI-8226; RXF 393; MOLT-4; HT-29; SK-MEL-5; HCC 2998; Hs-578T; HOP-62; NCI-H522; SF-295; EKVX; HOP-92; MDA-MB-231; NCI-H23; A498; KM12; PC-3; SK-MEL-2; IGROV-1.
Common to all, as to assay: growth of human tumour cells (NCI), 48 h

Consider ten molecules from ChEMBL document CHEMBL1201862, “PubChem BioAssay data set” (2004).

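Dose response: 5 concentrations. Exposure: 48 h. Format: 96-well plates. Endpoint: linear interpolation; highest concentration if not reached. GI50 marks 50% less growth.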 Calls of active or inactive are those of the source. Rule as the data show it: active = GI50 up to about 1.1 µM and inactive = higher.

`CCC1(C)C=Cc2c(cc(OC)c3c(=O)c4ccccc4n(C)c23)O1` (stereo not given): the GI50 with COLO 205 is > 10 µM (inactive); in the assay with RPMI-8226, 3.83 µM (inactive); in the assay with RXF 393 it was 2.44 µM (inactive); with MOLT-4 it was > 10 µM (inactive); with HT-29 it was 7.69 µM (inactive); in the assay on SK-MEL-5 it was > 10 µM (inactive). For the same molecule, the GI50 was > 10 µM (inactive) with HCC 2998; 5.6 µM (inactive) with Hs-578T; > 10 µM (inactive) with HOP-62; > 10 µM (inactive) in the assay with NCI-H522; 3.56 µM (inactive) in the assay with SF-295; > 10 µM (inactive) with EKVX. For the same molecule, the GI50 in the assay on HOP-92 was > 10 µM (inactive); in the assay with MDA-MB-231, > 10 µM (inactive); in the assay on NCI-H23 it was > 10 µM (inactive); with A498, > 10 µM (inactive); in the assay with KM12, 1.5 µM (inactive); in the assay on PC-3, > 10 µM (inactive). In addition, the GI50 in the assay with SK-MEL-2 and with IGROV-1 was > 10 µM (inactive) throughout.
Take `CCc1nc2c(c(N(C)C)c1C(=O)OC)CCc1ccccc1-2`: the GI50 is 18.7 µM (inactive) with COLO 205; 18.7 µM (inactive) in the assay with RPMI-8226; 31.2 µM (inactive) in the assay with RXF 393; 4.14 µM (inactive) in the assay on MOLT-4; 27.7 µM (inactive) with HT-29; 17 µM (inactive) in the assay on SK-MEL-5. For the same molecule, the GI50 in the assay with HCC 2998 is 24.6 µM (inactive); in the assay with Hs-578T, 51.1 µM (inactive); in the assay with HOP-62, 24.8 µM (inactive); in the assay with NCI-H522, 17.9 µM (inactive); in the assay with SF-295, 17.6 µM (inactive); in the assay on EKVX, 25.9 µM (inactive). Besides, the GI50 in the assay with HOP-92 was 65.2 µM (inactive); with MDA-MB-231, 23.5 µM (inactive); in the assay with NCI-H23, 34.4 µM (inactive); in the assay on A498, 20.2 µM (inactive); in the assay on KM12 it was 30.9 µM (inactive); in the assay on PC-3, 18 µM (inactive). Moreover, the values for the GI50 in the assay with SK-MEL-2 and with IGROV-1 were 17.8 µM (inactive) and 40.4 µM (inactive), respectively.
As to `Cc1nc2ccccc2n1CCc1nc2ccccc2[nH]1`, the GI50 with COLO 205, in the assay with RPMI-8226, in the assay on RXF 393, with MOLT-4, with HT-29 and in the assay with SK-MEL-5 was > 100 µM (inactive) in each case. Further, the GI50 with HCC 2998, with Hs-578T, with HOP-62, with NCI-H522, in the assay with SF-295 and in the assay with EKVX was > 100 µM (inactive) in each case. Besides, the GI50 in the assay with HOP-92, in the assay with MDA-MB-231, in the assay with NCI-H23, in the assay on A498, with KM12 and with PC-3 was > 100 µM (inactive) each time. The GI50 with SK-MEL-2 and with IGROV-1 was > 100 µM (inactive) throughout.
As to `CCN(CC)CCCNc1ncc(C)c2c1c1ccc3c(O)cccc3c1n2C`, the GI50 with COLO 205 was 5.52 µM (inactive); in the assay with RPMI-8226, 1.47 µM (inactive); in the assay with RXF 393, 1.95 µM (inactive); with MOLT-4, 0.043 µM (active); with HT-29, 1.21 µM (inactive); in the assay with SK-MEL-5, 6.76 µM (inactive). The GI50 in the assay with HCC 2998 is 0.798 µM (active); in the assay with Hs-578T it was 1.68 µM (inactive); in the assay with HOP-62, 0.964 µM (active); with NCI-H522, 1.05 µM (active); in the assay with SF-295 it was 1.73 µM (inactive); in the assay with EKVX, 3.02 µM (inactive). In addition, the GI50 in the assay on HOP-92 was 9.16 µM (inactive); in the assay with MDA-MB-231, 1.57 µM (inactive); in the assay with NCI-H23 it was 1.8 µM (inactive); in the assay on A498 it was 13.6 µM (inactive); in the assay on KM12, 1.52 µM (inactive); with PC-3, 0.687 µM (active). For the same molecule, the GI50 in the assay on SK-MEL-2 is 12.2 µM (inactive); with IGROV-1, 1.96 µM (inactive).
Consider `COc1ccc(CCc2ccc3c(c2)OCO3)cc1`, for which the GI50 in the assay with COLO 205 is > 100 µM (inactive); in the assay on RPMI-8226, 36.6 µM (inactive); in the assay on RXF 393, 21.9 µM (inactive); in the assay on MOLT-4 it was 34.7 µM (inactive); with HT-29 it was 28.7 µM (inactive); with SK-MEL-5, 34.9 µM (inactive). The GI50 in the assay with HCC 2998 was 79.4 µM (inactive); in the assay with Hs-578T it was 86.3 µM (inactive); with HOP-62 it was > 100 µM (inactive); with NCI-H522 it was 51.3 µM (inactive); with SF-295 it was 65 µM (inactive); in the assay with EKVX, 66.8 µM (inactive). The GI50 with HOP-92 is 36.8 µM (inactive); with MDA-MB-231 it was > 100 µM (inactive); in the assay with NCI-H23, > 100 µM (inactive); in the assay on A498, > 100 µM (inactive); in the assay on KM12 it was 29.2 µM (inactive); in the assay on PC-3, 34.6 µM (inactive). For the same molecule, the GI50 is 31.5 µM (inactive) with SK-MEL-2 and 70.5 µM (inactive) in the assay on IGROV-1.
Regarding `Clc1ccc(/C=N/C23CC4CC(CC(C4)C2)C3)c(Cl)c1`, the GI50 with COLO 205, in the assay with RPMI-8226, in the assay with RXF 393, in the assay with MOLT-4, in the assay with HT-29 and with SK-MEL-5 was > 10 µM (inactive) in each case. Also, the GI50 with HCC 2998, in the assay on Hs-578T, in the assay with HOP-62, with NCI-H522, with SF-295 and in the assay on EKVX was > 10 µM (inactive) each time. Also, the GI50 in the assay on HOP-92, in the assay on MDA-MB-231, in the assay with NCI-H23, with A498, in the assay on KM12 and in the assay on PC-3 was > 10 µM (inactive) in each case. Besides, the GI50 with SK-MEL-2 and in the assay with IGROV-1 was > 10 µM (inactive) each time.
Turning to `CN(C)Cc1ccc(C(C)(C)C)cc1-c1cc(C(C)(C)C)ccc1CN(C)C`, the GI50 with COLO 205 is 19.4 µM (inactive); with RPMI-8226, 26.9 µM (inactive); in the assay with RXF 393, 97.1 µM (inactive); in the assay with MOLT-4, 40.2 µM (inactive); with HT-29 it was 33 µM (inactive); in the assay on SK-MEL-5, 32.4 µM (inactive). Also, the GI50 in the assay with HCC 2998 is 16 µM (inactive); in the assay with Hs-578T, > 100 µM (inactive); in the assay on HOP-62, > 100 µM (inactive); in the assay on NCI-H522, 50.5 µM (inactive); with SF-295 it was 33.5 µM (inactive); with EKVX, 39.2 µM (inactive). For the same molecule, the GI50 was > 100 µM (inactive) with HOP-92; 70.5 µM (inactive) in the assay on MDA-MB-231; 77.4 µM (inactive) in the assay on NCI-H23; 28.2 µM (inactive) in the assay with A498; 34.3 µM (inactive) with KM12; 27.7 µM (inactive) with PC-3. Moreover, the GI50 with SK-MEL-2 was 76.9 µM (inactive); with IGROV-1, > 100 µM (inactive).
As for `O=[N+]([O-])c1nccn1CCCNc1ccnc2cc(Cl)ccc12`, the GI50 in the assay on COLO 205 is 3.05 µM (inactive); in the assay with RPMI-8226, 4.34 µM (inactive); with RXF 393, 4.26 µM (inactive); in the assay with MOLT-4 it was 3.64 µM (inactive); with HT-29 it was 3.94 µM (inactive); with SK-MEL-5, 2.29 µM (inactive). Moreover, the GI50 in the assay on HCC 2998 is 18.2 µM (inactive); in the assay with Hs-578T, > 100 µM (inactive); in the assay on HOP-62, 25.5 µM (inactive); in the assay on NCI-H522, 2.25 µM (inactive); in the assay with SF-295 it was 3.8 µM (inactive); in the assay on EKVX it was 1.93 µM (inactive). Besides, the GI50 was > 7.98 µM (inactive) with HOP-92; 6.59 µM (inactive) with MDA-MB-231; 5.52 µM (inactive) in the assay on NCI-H23; 5.08 µM (inactive) with A498; 5.37 µM (inactive) in the assay on KM12; 5.09 µM (inactive) in the assay on PC-3. Further, the GI50 in the assay with SK-MEL-2 is 4.29 µM (inactive); in the assay with IGROV-1 it was 7.71 µM (inactive).
As for `C=C1C(=O)OC2C1C(OC(=O)/C(C)=C/C)CC(O)(CCl)C1C(O)C=C(C)C21O` (stereo not given), the GI50 in the assay with COLO 205 was 4.58 µM (inactive); in the assay with RPMI-8226, 5.68 µM (inactive); with RXF 393 it was 5.93 µM (inactive); with MOLT-4, 3.92 µM (inactive); in the assay with HT-29, 15.7 µM (inactive); with SK-MEL-5, 11 µM (inactive). For the same molecule, the GI50 was 12.6 µM (inactive) in the assay on HCC 2998; > 62.1 µM (inactive) with Hs-578T; > 46.1 µM (inactive) with HOP-62; 1.43 µM (inactive) in the assay with NCI-H522; 53 µM (inactive) with SF-295; 12 µM (inactive) in the assay with EKVX. In addition, the GI50 in the assay on HOP-92 is 8.93 µM (inactive); in the assay on MDA-MB-231 it was 15.7 µM (inactive); in the assay with NCI-H23, 13.8 µM (inactive); in the assay on A498, 23.6 µM (inactive); with KM12, 20.5 µM (inactive); in the assay with PC-3, 21.7 µM (inactive). Further, the values for the GI50 in the assay on SK-MEL-2 and with IGROV-1 were 21 µM (inactive) and 14.9 µM (inactive), respectively.
With `CC1c2cc(c3c(c2O)CN([C@@H](C)C2CCCCC2)CO3)C(C)c2cc(c3c(c2O)CN([C@@H](C)C2CCCCC2)CO3)C(C)c2cc(c3c(c2O)CN([C@@H](C)C2CCCCC2)CO3)C(C)c2cc1c1c(c2O)CN([C@@H](C)C2CCCCC2)CO1` (stereo not given in full), the GI50 was 1.36 µM (inactive) in the assay with COLO 205; 0.414 µM (active) in the assay on RPMI-8226; 2.44 µM (inactive) with RXF 393; 1.34 µM (inactive) with MOLT-4; 0.277 µM (active) in the assay on HT-29; 1.84 µM (inactive) in the assay on SK-MEL-5. The GI50 with HCC 2998 is 1.45 µM (inactive); in the assay on Hs-578T, 1.35 µM (inactive); in the assay on HOP-62 it was 1.97 µM (inactive); in the assay on NCI-H522 it was 0.607 µM (active); with SF-295 it was 1.8 µM (inactive); with EKVX it was 1.06 µM (active). The GI50 in the assay on HOP-92 was 1.45 µM (inactive); with MDA-MB-231, 1.31 µM (inactive); in the assay with NCI-H23 it was 1.5 µM (inactive); in the assay with A498, 2.06 µM (inactive); in the assay with KM12, 0.838 µM (active); in the assay with PC-3 it was 1.77 µM (inactive). Also, the GI50 is 2.11 µM (inactive) with SK-MEL-2 and 1.32 µM (inactive) in the assay with IGROV-1.
